Source: patent US5288709A, “Erythromycin derivatives” (priority 1991, dated 1994)
In brackets after ≈: the same amount, converted by molar mass. Read-outs that look alike come from different tables or passages of the source.

Tests used:
Assay in all cases: In-vitro antimicrobial activity primary screen (agar dilution MIC)
Type in all cases: cell-based
Acinetobacter SP CMX 669 = settings: Acinetobacter SP CMX 669, BHI agar, 20-24 h
Protocol: (§1) The antimicrobial spectra of several of the compounds of the present invention were tested as described below.
(§2) Twelve petri dishes containing successive aqueous dilutions of the test compounds, mixed with 10 mL of sterilized Brain Heart Infusion (BHI) agar (Difco 0418-01-5), were prepared. Each plate was inoculated with 1:100 (or 1:10 for slow growing strains (primarily Micrococcus and Streptococcus) dilutions of up to 32 different microorganisms, using a Steers replicator block. The inoculated plates were incubated at 35 37° C. for 20-24 hours. In addition, a control plate, using BHI agar containing no test compound, was prepared and incubated at the beginning and the end of each test.
(§3) An additional plate containing a compound having known susceptibility patterns for the organisms being tested and belonging to the same antibiotic class as the test compounds was also prepared and incubated as a further control, as well as to provide test-to test comparability.
(§4) After incubation, each plate was read. The MIC (minimum inhibitory concentration) is defined as the lowest concentration of test compound yielding no growth, a slight haze, or sparsely isolated colonies on the inoculum spot as compared to the growth control containing no test compound.

Staphylococcus aureus 45 = settings: BHI agar, 20-24 h
Protocol: as §1, §2, §3, §4

Pseudomonas cepacia 2961 = settings: BHI agar, 20-24 h
Protocol: as §1, §2, §3, §4

Escherichia coli SS = settings: BHI agar, 20-24 h
Protocol: as §1, §2, §3, §4

[1] = tested on: Pseudomonas aeruginosa A5007; settings: Pseudomonas aeruginosa A5007, BHI agar, 20-24 h
Protocol: as §1, §2, §3, §4

[2] = tested on: Micrococcus luteus ATCC 4698; settings: BHI agar, 20-24 h
Protocol: as §1, §2, §3, §4

[3] = tested on: Pseudomonas aeruginosa K799/61; settings: Pseudomonas aeruginosa K799/61, BHI agar, 20-24 h
Protocol: as §1, §2, §3, §4

[4] = tested on: Streptococcus bovis A5169; settings: BHI agar, 20-24 h
Protocol: as §1, §2, §3, §4

[5] = tested on: Enterococcus faecium ATCC 8043
Protocol: as §1, §2, §3, §4

[6] = tested on: Staphylococcus aureus A5177; settings: Staphylococcus aureus A5177, BHI agar, 20-24 h
Protocol: as §1, §2, §3, §4

Escherichia coli JUHL = settings: Escherichia coli JUHL, BHI agar, 20-24 h
Protocol: as §1, §2, §3, §4

[7] = tested on: Staphylococcus aureus ATCC 6538P; settings: BHI agar, 20-24 h
Protocol: as §1, §2, §3, §4

[8] = tested on: Enterobacter aerogenes ATCC 13048; settings: Enterobacter aerogenes ATCC 13048, BHI agar, 20-24 h
Protocol: as §1, §2, §3, §4

[9] = tested on: Pseudomonas aeruginosa BMH10; settings: BHI agar, 20-24 h
Protocol: as §1, §2, §3, §4

[10] = tested on: Micrococcus luteus ATCC 9341; settings: 20-24 h
Protocol: as §1, §2, §3, §4

[11] = tested on: Staphylococcus aureus 45 RAR2; settings: BHI agar, 20-24 h
Protocol: as §1, §2, §3, §4

Escherichia coli H560 = settings: Escherichia coli H560, BHI agar, 20-24 h
Protocol: as §1, §2, §3, §4

[12] = tested on: Providencia stuartii CMX 640; settings: Providencia stuartii CMX 640, BHI agar, 20-24 h
Protocol: as §1, §2, §3, §4

[13] = tested on: Pseudomonas aeruginosa K799/WT; settings: Pseudomonas aeruginosa K799/WT, BHI agar, 20-24 h
Protocol: as §1, §2, §3, §4

Escherichia coli DC-2 = settings: Escherichia coli DC-2, BHI agar, 20-24 h
Protocol: as §1, §2, §3, §4

[14] = tested on: Streptococcus pyrogenes EES61; settings: BHI agar, 20-24 h
Protocol: as §1, §2, §3, §4

[15] = tested on: Staphylococcus epidermidis 3519; settings: BHI agar, 20-24 h
Protocol: as §1, §2, §3, §4

[16] = tested on: Streptococcus pyrogenes 2548 INDUC; settings: BHI agar, 20-24 h
Protocol: as §1, §2, §3, §4

[17] = tested on: Streptococcus agalactiae CMX 508; settings: BHI agar, 20-24 h
Protocol: as §1, §2, §3, §4

[18] = tested on: Klebsiella pneumoniae ATCC 8045; settings: Klebsiella pneumoniae ATCC 8045, BHI agar, 20-24 h
Protocol: as §1, §2, §3, §4

[19] = tested on: Staphylococcus aureus CMX 686B; settings: BHI agar, 20-24 h
Protocol: as §1, §2
(§5) An additional plate containing a compound having known susceptibility patterns for the organisms being tested and belonging to the same antibiotic class as the test compounds was also prepared and incubated as a further control, as well as to provide test-to test comparability. Erythromycin A was used for this purpose.
as §4

[20] = tested on: Staphylococcus aureus CMX 503A; settings: BHI agar, 20-24 h
Protocol: as §1, §2, §5, §4

[21] = tested on: Staphylococcus aureus CMX 553; settings: BHI agar, 20-24 h
Protocol: as §1, §2, §5, §4

How did the MIC (Acinetobacter SP CMX 669; SPCMX669, read-out: MIC) turn out when `CC[C@H]1OC(=O)[C@H](C)[C@@H](O[C@H]2C[C@@](C)(OC)[C@H](NC(C)=O)[C@H](C)O2)[C@H](C)[C@@H](O[C@@H]2O[C@H](C)C[C@H](N(C)C)[C@H]2O)[C@](C)(O)C[C@@H](C)[C@@H]2O[C@@]1(C)C(=O)[C@H]2C` [Example 10, (4"R,9S) 4"-Acetylamino-9-deoxo-4",11,12-trideoxy-9,12-epoxy-11-oxoerythromycin A] was run?
The MIC was 50 µg/mL (≈ 66.1 µM).

And the MIC (Staphylococcus aureus 45; read-out: MIC)?
The MIC was 0.39 µg/mL (≈ 0.515 µM).

What about the MIC (Pseudomonas cepacia 2961; Burkholderia cepacia, read-out: MIC) of the same molecule?
The MIC was greater than 100 µg/mL.

What about the MIC (Escherichia coli SS; read-out: MIC) of the same molecule?
The MIC was 0.39 µg/mL (≈ 0.515 µM).

What about the MIC ([1]; read-out: MIC) of the same molecule?
The MIC was greater than 100 µg/mL.

What about the MIC ([2]; Micrococcus luteus, ATCC4698, 24 h) of the same molecule?
Its MIC is 0.2 µg/mL (≈ 0.264 µM).

What about the MIC ([3]; read-out: MIC) of the same molecule?
Its MIC is 1.56 µg/mL (≈ 2.06 µM).

And the MIC ([4]; Streptococcus equinus, A5169, 24 h)?
Its MIC is 0.2 µg/mL (≈ 0.264 µM).

What about the MIC ([5]; Enterococcus faecium, ATCC8043, 24 h) of the same molecule?
The MIC was 0.2 µg/mL (≈ 0.264 µM).

And the MIC ([6]; read-out: MIC)?
The MIC was 0.39 µg/mL (≈ 0.515 µM).

And the MIC (Escherichia coli JUHL; read-out: MIC)?
Its MIC is greater than 100 µg/mL.

And the MIC ([7]; Staphylococcus aureus, ATCC6538P, 24 h)?
The MIC was 0.39 µg/mL (≈ 0.515 µM).

And the MIC ([8]; Klebsiella aerogenes, ATCC13048, read-out: MIC)?
Its MIC is greater than 100 µg/mL.

What about the MIC ([9]; read-out: MIC) of the same molecule?
Its MIC is greater than 100 µg/mL.

And the MIC ([10]; ATCC9341, BHI agar, read-out: MIC)?
Its MIC is 0.05 µg/mL (≈ 0.0661 µM).

What about the MIC ([11]; Staphylococcus aureus, 45RAR2, 24 h) of the same molecule?
Its MIC is 0.39 µg/mL (≈ 0.515 µM).

What about the MIC (Escherichia coli H560; read-out: MIC) of the same molecule?
The MIC was 100 µg/mL (≈ 132 µM).

And the MIC ([12]; CMX640, read-out: MIC)?
The MIC was greater than 100 µg/mL.

And the MIC ([13]; read-out: MIC)?
Its MIC is greater than 100 µg/mL.

And the MIC (Escherichia coli DC-2; DC2, read-out: MIC)?
Its MIC is greater than 100 µg/mL.

What about the MIC ([14]; read-out: MIC) of the same molecule?
Its MIC is 0.02 µg/mL (≈ 0.0264 µM).

And the MIC ([15]; Staphylococcus epidermidis, 3519, 24 h)?
Its MIC is 0.39 µg/mL (≈ 0.515 µM).

And the MIC ([16]; read-out: MIC)?
The MIC was 0.78 µg/mL (≈ 1.03 µM).

What about the MIC ([17]; Streptococcus agalactiae, CMX508, 24 h) of the same molecule?
The MIC was 0.1 µg/mL (≈ 0.132 µM).

What about the MIC ([18]; ATCC8045, read-out: MIC) of the same molecule?
Its MIC is greater than 100 µg/mL.

And the MIC ([19]; CMX686B, read-out: MIC)?
Its MIC is 0.39 µg/mL (≈ 0.515 µM).

And the MIC ([20]; Staphylococcus aureus, CMX503A, 24 h, read-out: MIC)?
The MIC was 0.39 µg/mL (≈ 0.515 µM).

What about the MIC ([21]; Staphylococcus aureus, CMX553, 24 h, read-out: MIC) of the same molecule?
Its MIC is 0.39 µg/mL (≈ 0.515 µM).

`CC[C@H]1OC(=O)[C@H](C)[C@@H](O[C@H]2C[C@@](C)(OC)[C@@H](O)[C@H](C)O2)[C@H](C)[C@@H](O[C@@H]2O[C@H](C)C[C@H](N(C)C)[C@H]2O)[C@](C)(O)C[C@@H](C)[C@@H]2O[C@@]1(C)C(=NO)[C@H]2C` [Example 18, (9S)-9-Deoxo-11,12-dideoxy-9,12-epoxy-11-hydroxyiminoerythromycin A] was tested. Which MIC (Acinetobacter SP CMX 669) did it give?
Its MIC is greater than 100 microgram/mL.

What about the MIC (Staphylococcus aureus 45) of the same molecule?
The MIC was 0.2 microgram/mL.

What about the MIC (Pseudomonas cepacia 2961) of the same molecule?
Its MIC is greater than 100 microgram/mL.

What about the MIC (Escherichia coli SS) of the same molecule?
Its MIC is 1.56 microgram/mL.

What about the MIC [1] of the same molecule?
The MIC was greater than 100 microgram/mL.

What about the MIC [2] of the same molecule?
Its MIC is 0.1 microgram/mL.

What about the MIC [3] of the same molecule?
Its MIC is 6.2 microgram/mL.

What about the MIC [4] of the same molecule?
Its MIC is 0.1 microgram/mL.

What about the MIC ([5]; Enterococcus faecium ATCC 8043, BHI agar, 20-24 h) of the same molecule?
Its MIC is 0.2 microgram/mL.

And the MIC [6]?
Its MIC is 0.78 microgram/mL.

And the MIC (Escherichia coli JUHL)?
Its MIC is greater than 100 microgram/mL.

What about the MIC [7] of the same molecule?
Its MIC is 0.2 microgram/mL.

What about the MIC [8] of the same molecule?
The MIC was greater than 100 microgram/mL.

What about the MIC [9] of the same molecule?
Its MIC is greater than 100 microgram/mL.

And the MIC ([10]; BHI agar)?
The MIC was 0.1 microgram/mL.

And the MIC [11]?
Its MIC is 0.39 microgram/mL.

What about the MIC (Escherichia coli H560) of the same molecule?
Its MIC is greater than 100 microgram/mL.

What about the MIC [12] of the same molecule?
The MIC was greater than 100 microgram/mL.

What about the MIC [13] of the same molecule?
The MIC was greater than 100 microgram/mL.

And the MIC (Escherichia coli DC-2)?
The MIC was greater than 100 microgram/mL.

And the MIC [14]?
The MIC was 0.02 microgram/mL.

And the MIC [15]?
The MIC was 0.39 microgram/mL.

What about the MIC [16] of the same molecule?
Its MIC is 1.56 microgram/mL.

And the MIC [17]?
The MIC was 0.05 microgram/mL.

What about the MIC [18] of the same molecule?
Its MIC is greater than 100 microgram/mL.

What about the MIC [19] of the same molecule?
Its MIC is 0.2 microgram/mL.

And the MIC [20]?
Its MIC is 0.2 microgram/mL.

What about the MIC [21] of the same molecule?
The MIC was 0.2 microgram/mL.
